One assay relates to rat spleen cells. The assay is described as follows: concanavalin A response of rat spleen cells (tritiated thymidine uptake). The class given is cell-based. The note with it: dosage level of 10 micromolar, concanavalin A 3 μg/ml, 2×10^5 cells per well. Here is the method: The concanavalin A response of rat spleen cells was used as a primary in vitro assay to determine the activity of the compounds of the invention. Many methods for the determination of concanavalin A response are described in the literature. The method employed was similar to that described by Lacombe P. et al, FEBS 3048 191, 227-230. This method was altered insofar as Hepes was excluded, 2×10^5 cells were used per culture well, and concanavalin A employed at 3 μg/ml. 2-Mercaptoethanol was a requirement (2×10M^-5 ) and 0.1 μCi of tritiated thymidine was added 4 hours before cell harvesting.

A further assay deals with cyclooxygenase. The assay is described as follows: cyclooxygenase inhibition test of Harvey and Osborn. The source says:
Other members of the series inhibit 5-lipoxygenase product formation as measured in this test, and are thus indicated for the therapeutic treatment of diseases in which leukotrienes are implicated. These include immediate hypersensitivity diseases, allergic reactions of the pulmonary system, for example, in lung disorders such as extrinsic asthma and industrial asthmas and in other inflammatory disorders associated with acute or chronic infectious diseases as allergic skin diseases, ectopic and atopic eczemas, psoriasis, contact hypersensitivity and angioneurotic oedema, bronchitis, cystic fibrosis and rheumatic fever. Furthermore, owing to their inhibition of leukotriene formation, the compounds have potential activity against a wide range of inflammatory diseases, and are also indicated for use in cancer treatment.

Each structure is given as a SMILES string.

As to `CC(O)=C(C#N)C(=O)Nc1ccc(C(C)(C)C)cc1` [Example 1, 2-Cyano-N-[4-(1,1-dimethylethyl)phenyl]-3-hydroxybut-2-enamide], the inhibition at 10 µM with rat spleen cells is over 50%. Moreover, the cyclooxygenase inhibiting properties entry with cyclooxygenase is “little or no cyclooxygenase inhibiting properties”. Turning to `CC(O)=C(C#N)C(=O)N(C)c1ccc(C(C)(C)C)cc1` [Example 2, 2-Cyano-N-[4-(1,1-dimethylethyl)phenyl]-3-hydroxy-N-methylbut-2-enamide], the cyclooxygenase inhibiting properties result in the assay with cyclooxygenase was “little or no cyclooxygenase inhibiting properties”. In the assay with rat spleen cells, `Cc1oncc1C(=O)Nc1ccc(C(C)(C)C)cc1` [Example 3, N-[4-(1,1-Dimethylethyl)phenyl]-5-methylisoxazol-4-yl-carboxamide] returned an inhibition at 10 µM of over 50%. On to `CCC(C)(C)c1ccc(NC(=O)C(C#N)=C(C)O)cc1` [Example 4, 2-Cyano-N-[4-(1,1-dimethylpropyl)phenyl]-3-hydroxybut-2-enamide], for which, in the assay with rat spleen cells, the inhibition at 10 µM was over 50%.

By inhibition is commonly meant the drop in the measured response relative to a control, in per cent. Low values mean little suppression, high ones strong suppression.
